Assay results published in US9474790B2, “Stable, protracted GLP-1/glucagon receptor co-agonists for medical use” (Novo Nordisk A/S, priority 2013, dated 2016).
Numbered stars: 1 amine (or outer) side, 2 acyl side, 3 side chain; on linkers, the order of the positions; unused ones are H or OH. Bridge positions count the residues as written; N and C are the ends. Square brackets hold non-standard residues; d marks the D form. Side chains are listed from the residue outwards. Peptide text beside a SMILES is read from it. I, II: the chains in the order shown. * marks the point of attachment. C18 diacid = O=C(O)CCCCCCCCCCCCCCCCC(=O)*; γGlu = O=C(O)[C@H](CCC(=O)[*:2])N[*:1]; Ac4c = NC1(C(=O)O)CCC1; AEEA = NCCOCCOCC(=O)O

Target: T1, human GLP-1 receptor (Homo sapiens, UniProt P43220)
T1 construct: expressed in transfected cells; host or cells: BHK cells (parent BHKTS13), clone FCW467-12A/KZ10-1, with CRE luciferase
T1 sequence (P43220 24-463): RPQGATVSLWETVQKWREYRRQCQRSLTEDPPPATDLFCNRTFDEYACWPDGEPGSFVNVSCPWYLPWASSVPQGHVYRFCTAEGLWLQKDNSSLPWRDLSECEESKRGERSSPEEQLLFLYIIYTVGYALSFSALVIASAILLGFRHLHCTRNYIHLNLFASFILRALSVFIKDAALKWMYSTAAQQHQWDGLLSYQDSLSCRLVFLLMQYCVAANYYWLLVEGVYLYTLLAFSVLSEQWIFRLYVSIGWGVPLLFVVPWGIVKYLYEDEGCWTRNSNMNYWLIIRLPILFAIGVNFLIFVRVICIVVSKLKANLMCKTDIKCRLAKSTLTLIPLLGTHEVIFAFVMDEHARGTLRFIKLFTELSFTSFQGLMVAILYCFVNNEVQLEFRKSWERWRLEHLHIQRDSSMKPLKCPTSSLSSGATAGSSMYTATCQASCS
Experiment: GLP-1 receptor binding, 125I-GLP-1 displacement SPA on isolated membranes
Conditions: displacement of 125I-GLP-1 from membranes; read-out: IC50 GLP-1R
Summary of the method: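 Test derivatives, serially diluted, competed with 125I-GLP-1(7-36)NH2 for the human GLP-1 receptor on BHK membranes, read by WGA-bead scintillation proximity after 2 h at 30°C, pH 7.4 HEPES/EGTA/MgCl2 buffer. Final serum albumin was either ≤0.001% or 2.0%; IC50 from non-linear fit.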

Compound	IC50 [nM]
CC(C)C[C@H](NC(=O)[C@H](CC(=O)O)NC(=O)[C@H](CC(C)C)NC(=O)[C@H](Cc1ccc(O)cc1)NC(=O)[C@H](CCCNC(=N)N)NC(=O)[C@H](CO)NC(=O)[C@H](CC(C)C)NC(=O)[C@H](CC(=O)O)NC(=O)[C@H](CO)NC(=O)[C@@H](NC(=O)[C@H](Cc1ccccc1)NC(=O)[C@@H](NC(=O)CNC(=O)[C@H](CCC(N)=O)NC(=O)C1(NC(=O)[C@@H](N)Cc2c[nH]cn2)CCC1)[C@@H](C)O)[C@@H](C)O)C(=O)N[C@@H](CCCNC(=N)N)C(=O)N[C@@H](CCCNC(=N)N)C(=O)N[C@@H](C)C(=O)N[C@@H](CCCNC(=N)N)C(=O)N[C@@H](CC(=O)O)C(=O)N[C@@H](Cc1ccccc1)C(=O)N[C@H](C(=O)N[C@@H](CCC(N)=O)C(=O)N[C@@H](Cc1c[nH]c2ccccc12)C(=O)N[C@@H](CC(C)C)C(=O)N[C@@H](CC(C)C)C(=O)N[C@@H](CCCCNC(=O)CC[C@H](NC(=O)CC[C@H](NC(=O)COCCOCCNC(=O)COCCOCCNC(=O)CC[C@H](NC(=O)CC[C@H](NC(=O)CCCCCCCCCCCCCCCCC(=O)O)C(=O)O)C(=O)O)C(=O)O)C(=O)O)C(=O)N[C@H](C(N)=O)[C@@H](C)O)C(C)C [Example 46, N^ε28-[(4S)-4-carboxy-4-[[(4S)-4-carboxy-4-[[2-[2-[2-[[2-[2-[2-[[(4S)-4-carboxy-4-[[(4S)-4-carboxy-4-(17-carboxyheptadecanoylamino)butanoyl]amino]butanoyl]amino]ethoxy]ethoxy]acetyl]amino]ethoxy]ethoxy]acetyl]amino]butanoyl]amino]butanoyl]-[Acb2,Leu10,Arg12,Leu16,Arg20,Leu27,Lys28]-Glucagon amide] (H-H[Ac4c]QGTFTSDLSRYLDLRRARDFVQWLLK([γGlu-γGlu-AEEA-AEEA-γGlu-γGlu-C18 diacid])T-NH2; N-terminus assumed)	1.1
CC(C)C[C@H](NC(=O)[C@H](CC(=O)O)NC(=O)[C@H](CC(C)C)NC(=O)[C@H](Cc1ccc(O)cc1)NC(=O)[C@H](CCCCN)NC(=O)[C@H](CO)NC(=O)[C@H](CC(C)C)NC(=O)[C@H](CC(=O)O)NC(=O)[C@H](CO)NC(=O)[C@@H](NC(=O)[C@H](Cc1ccccc1)NC(=O)[C@@H](NC(=O)CNC(=O)[C@H](CCC(N)=O)NC(=O)C1(NC(=O)[C@@H](N)Cc2c[nH]cn2)CCC1)[C@@H](C)O)[C@@H](C)O)C(=O)N[C@@H](CCCCN)C(=O)N[C@@H](CCCNC(=N)N)C(=O)N[C@@H](C)C(=O)N[C@@H](CCCNC(=N)N)C(=O)N[C@@H](CCC(=O)O)C(=O)N[C@@H](Cc1ccccc1)C(=O)N[C@H](C(=O)N[C@@H](CCC(N)=O)C(=O)N[C@@H](Cc1c[nH]c2ccccc12)C(=O)N[C@@H](CC(C)C)C(=O)N[C@@H](CC(C)C)C(=O)N[C@@H](CCCCNC(=O)CC[C@H](NC(=O)CC[C@H](NC(=O)COCCOCCNC(=O)COCCOCCNC(=O)CC[C@H](NC(=O)CC[C@H](NC(=O)CCCCCCCCCCCCCCCCC(=O)O)C(=O)O)C(=O)O)C(=O)O)C(=O)O)C(=O)N[C@H](C(N)=O)[C@@H](C)O)C(C)C [Example 47, N^ε28-[(4S)-4-carboxy-4-[[(4S)-4-carboxy-4-[[2-[2-[2-[[2-[2-[2-[[(4S)-4-carboxy-4-[[(4S)-4-carboxy-4-(17-carboxyheptadecanoylamino)butanoyl]amino]butanoyl]amino]ethoxy]ethoxy]acetyl]amino]ethoxy]ethoxy]acetyl]amino]butanoyl]amino]butanoyl]-[Acb2,Leu10,Leu16,Lys17,Arg20,Glu21,Leu27,Lys28]-Glucagon amide] (H-H[Ac4c]QGTFTSDLSKYLDLKRAREFVQWLLK([γGlu-γGlu-AEEA-AEEA-γGlu-γGlu-C18 diacid])T-NH2; N-terminus assumed)	0.2
CC(C)C[C@H](NC(=O)[C@H](CC(=O)O)NC(=O)[C@H](CC(C)C)NC(=O)[C@H](Cc1ccc(O)cc1)NC(=O)[C@H](CCCCN)NC(=O)[C@H](CO)NC(=O)[C@H](CC(C)C)NC(=O)[C@H](CC(=O)O)NC(=O)[C@H](CO)NC(=O)[C@@H](NC(=O)[C@H](Cc1ccccc1)NC(=O)[C@@H](NC(=O)CNC(=O)[C@H](CCC(N)=O)NC(=O)C1(NC(=O)[C@@H](N)Cc2c[nH]cn2)CCC1)[C@@H](C)O)[C@@H](C)O)C(=O)N[C@@H](CCCCN)C(=O)N[C@@H](CCCNC(=N)N)C(=O)N[C@@H](C)C(=O)N[C@@H](CCCNC(=N)N)C(=O)N[C@@H](CCC(=O)O)C(=O)N[C@@H](Cc1ccccc1)C(=O)N[C@H](C(=O)N[C@@H](CCC(N)=O)C(=O)N[C@@H](Cc1c[nH]c2ccccc12)C(=O)N[C@@H](CC(C)C)C(=O)N[C@@H](CC(C)C)C(=O)N[C@@H](CCCCNC(=O)CNC(=O)[C@H](CO)NC(=O)[C@H](CCC(=O)O)NC(=O)CNC(=O)[C@H](CO)NC(=O)CC[C@H](NC(=O)CC[C@H](NC(=O)CCCCCCCCCCCCCCCCC(=O)O)C(=O)O)C(=O)O)C(=O)N[C@H](C(N)=O)[C@@H](C)O)C(C)C [Example 48] (I: H-H[Ac4c]QGTFTSDLSKYLDLKRAREFVQWLLKT-NH2 / II: {C18 diacid-γGlu-γGlu}-SGESG; amide I:28-II:C; N-terminus assumed)	0.2
CC(C)C[C@H](NC(=O)[C@H](CC(=O)O)NC(=O)[C@H](CC(C)C)NC(=O)[C@H](Cc1ccc(O)cc1)NC(=O)[C@H](CCCCN)NC(=O)[C@H](CO)NC(=O)[C@H](CC(C)C)NC(=O)[C@H](CC(=O)O)NC(=O)[C@H](CO)NC(=O)[C@@H](NC(=O)[C@H](Cc1ccccc1)NC(=O)[C@@H](NC(=O)CNC(=O)[C@H](CCC(N)=O)NC(=O)C1(NC(=O)[C@@H](N)Cc2c[nH]cn2)CCC1)[C@@H](C)O)[C@@H](C)O)C(=O)N[C@@H](CCCNC(=N)N)C(=O)N[C@@H](CCCNC(=N)N)C(=O)N[C@@H](C)C(=O)N[C@@H](CCCNC(=N)N)C(=O)N[C@@H](CCC(=O)O)C(=O)N[C@@H](Cc1ccccc1)C(=O)N[C@H](C(=O)N[C@@H](CCC(N)=O)C(=O)N[C@@H](Cc1c[nH]c2ccccc12)C(=O)N[C@@H](CC(C)C)C(=O)N[C@@H](CC(C)C)C(=O)N[C@@H](CCCCNC(=O)CC[C@H](NC(=O)CC[C@H](NC(=O)COCCOCCNC(=O)COCCOCCNC(=O)CC[C@H](NC(=O)CC[C@H](NC(=O)CCCCCCCCCCCCCCCCC(=O)O)C(=O)O)C(=O)O)C(=O)O)C(=O)O)C(=O)N[C@H](C(N)=O)[C@@H](C)O)C(C)C [Example 49, N^ε28-[(4S)-4-carboxy-4-[[(4S)-4-carboxy-4-[[2-[2-[2-[[2-[2-[2-[[(4S)-4-carboxy-4-[[(4S)-4-carboxy-4-(17-carboxyheptadecanoylamino)butanoyl]amino]butanoyl]amino]ethoxy]ethoxy]acetyl]amino]ethoxy]ethoxy]acetyl]amino]butanoyl]amino]butanoyl]-[Acb2,Leu10,Leu16,Arg20,Glu21,Leu27,Lys28]-Glucagon amide] (H-H[Ac4c]QGTFTSDLSKYLDLRRAREFVQWLLK([γGlu-γGlu-AEEA-AEEA-γGlu-γGlu-C18 diacid])T-NH2; N-terminus assumed)	0.4
